In patent US20250042890A1, “METHIONINE ADENOSYLTRANSFERASE 2a (MAT2A) INHIBITORS AND USES THEREOF” (Insilico Medicine IP Limited, priority 2021, published 2025):

Target: MAT2A (Homo sapiens (Human), UniProt P31153)
Assay: MAT2A Biochemical Assay
Settings: Biomol Green readout O.D.620; 1 uM start, 3-fold dilution, 10 doses; read-out: MAT2A enzymatic IC50
Experimental: Example A: MAT2A Biochemical Assay
Compounds described herein were tested as follows:
• (1). Prepared 1×Assay buffer. • (2). Preparation of compound concentration gradient: the compounds test condition were 1 uM start, 3-fold dilution, 10 doses, singlet or duplicate. 100× concentration compounds were prepared in 384-well plate. Then used Echo 550 to transfer 250 nl to a 384-reaction plate for later use. Added 250 nl of 100% DMSO to the negative and positive control wells. • (3). Prepared 1.67× final concentration enzyme solution with 1×Assay buffer. • (4). Added 15 μl of 1.67× Enzyme solution to the compound wells and positive control wells; added 15 μl of 1 Assay buffer to the negative control wells. • (5). Centrifuged at 1000 rpm for 30 seconds and incubate for 15 minutes. • (6). Prepared 2.5× final concentration Substrate mix solution with 1×Assay buffer. • (7). Added 10 μl of 2.5× final concentration Substrate mix solution to start the reaction. • (8). Centrifuged at 1000 rpm for 30 seconds and incubate for 150 minutes. • (9). Added 50 μl Biomol Green to stop the reaction, centrifuge at 1000 rpm for 30 seconds and incubate for 15 minutes. read O.D.620, process data.
• (1) Using GraphPad Prism 5. • (2) % Inh=(Max signal−Compound signal)/(Max signal−Min signal)*100. • (3) Max signal was obtained from the positive control wells. • (4) Min signal was obtained from the negative control wells.

MAT2A, sequence (P31153 whole entry, species assumed): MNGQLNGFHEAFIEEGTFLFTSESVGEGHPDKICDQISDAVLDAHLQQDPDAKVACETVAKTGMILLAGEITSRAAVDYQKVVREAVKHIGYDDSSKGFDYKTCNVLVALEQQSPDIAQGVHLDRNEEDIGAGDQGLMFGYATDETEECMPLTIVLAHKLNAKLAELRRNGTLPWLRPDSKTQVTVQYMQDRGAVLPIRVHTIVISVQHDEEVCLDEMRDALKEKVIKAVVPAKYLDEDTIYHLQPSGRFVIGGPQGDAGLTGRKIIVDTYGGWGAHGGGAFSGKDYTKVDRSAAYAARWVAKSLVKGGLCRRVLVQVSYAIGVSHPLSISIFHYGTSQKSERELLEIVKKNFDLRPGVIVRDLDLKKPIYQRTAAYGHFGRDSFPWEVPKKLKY

Structure (SMILES)	IC50 [µM]
C#CCNc1nc(=O)n(-c2cccnc2)c2cc(Cl)cc(F)c12 [Example 29, 7-chloro-5-fluoro-4-(prop-2-yn-1-ylamino)-1-(pyridin-3-yl)quinazolin-2 (1H)-one]	< 0.05
C#CC(C)Nc1nc(=O)n(-c2cccnc2C)c2cc(C(F)(F)F)cc(OC)c12 (centres unmarked) [Example 37]	< 0.05
C#CCNc1nc(=O)n(-c2cccnc2C)c2cc(Cl)cc(OC)c12 [Example 22, 7-chloro-5-methoxy-1-(2-methylpyridin-3-yl)-4-(prop-2-yn-1-ylamino)quinazolin-2 (1H)-one]	< 0.05
C=CCNc1nc(=O)n(-c2cccnc2C)c2cc(C(F)(F)F)cc(OC)c12 [Example 77]	< 0.05
C#CCNc1nc(=O)n(-c2cnccn2)c2cc(Cl)ccc12 [Example 17, 7-chloro-4-(prop-2-yn-1-ylamino)-1-(pyrazin-2-yl)quinazolin-2 (1H)-one]	< 0.05
C#CCNc1nc(=O)n(-c2cccnc2)c2nc(C(F)(F)F)ccc12 [Example 57, 4-(prop-2-yn-1-ylamino)-1-(pyridin-3-yl)-7-(trifluoromethyl)pyrido[2,3-d]pyrimidin-2 (1H)-one]	< 0.05
C#CC(C)Nc1nc(=O)n(-c2cccnc2C)c2cc(Cl)cc(OC)c12 (centres unmarked) [Example 26]	< 0.05
C=CCNc1nc(=O)n(-c2cccnc2C)c2cc(Cl)cc(OC)c12 [Example 74]	< 0.05
C#CC1(Nc2nc(=O)n(-c3cccnc3)c3nc(C(F)(F)F)ccc23)CC1 [Example 68, 4-((1-ethynylcyclopropyl)amino)-1-(pyridin-3-yl)-7-(trifluoromethyl)pyrido[2,3-d]pyrimidin-2 (1H)-one]	< 0.05
C#CCNc1nc(=O)n(-c2cccnc2)c2cc(C(F)(F)F)ccc12 [Example 7, 4-(prop-2-yn-1-ylamino)-1-(pyridin-3-yl)-7-(trifluoromethyl)quinazolin-2 (1H)-one]	< 0.05
C#CC1(Nc2nc(=O)n(-c3nccnc3C)c3cc(Cl)cc(OC)c23)CC1 [Example 25, 7-chloro-4-((1-ethynylcyclopropyl)amino)-5-methoxy-1-(3-methylpyrazin-2-yl)quinazolin-2 (1H)-one]	< 0.05
C#CCNc1nc(=O)n(-c2cccnc2)c2cc(C(F)(F)F)cc(OC)c12 [Example 34, 5-methoxy-4-(prop-2-yn-1-ylamino)-1-(pyridin-3-yl)-7-(trifluoromethyl)quinazolin-2 (1H)-one]	< 0.05
C#CC1(Nc2nc(=O)n(-c3cccnc3C)c3cc(Cl)cc(OC)c23)CCC1 [Example 28]	< 0.05
C#CC1(Nc2nc(=O)n(-c3cccnc3C)c3cc(Cl)cc(OC)c23)CC1 [Example 27, 7-chloro-4-((1-ethynylcyclopropyl)amino)-5-methoxy-1-(2-methylpyridin-3-yl)quinazolin-2 (11H)-one]	< 0.05
C#CCNc1nc(=O)n(-c2ccccc2Cl)c2cc(Cl)ccc12 [Example 10, 7-chloro-1-(2-chlorophenyl)-4-(prop-2-yn-1-ylamino)quinazolin-2 (1H)-one]	< 0.05
C#CC1(Nc2nc(=O)n(-c3cccnn3)c3nc(C(F)(F)F)ccc23)CC1 [Example 70, 4-((1-ethynylcyclopropyl)amino)-1-(pyridazin-3-yl)-7-(trifluoromethyl)pyrido[2,3-d]pyrimidin-2 (1H)-one]	< 0.05
C#CCNc1nc(=O)n(-c2cccnc2C)c2cc(C(F)(F)F)ccc12 [Example 33, 1-(2-methylpyridin-3-yl)-4-(prop-2-yn-1-ylamino)-7-(trifluoromethyl)quinazolin-2 (1H)-one]	< 0.05
C#CCNc1nc(=O)n(-c2cnccn2)c2cc(Cl)cc(OC)c12 [Example 21, 7-chloro-5-methoxy-4-(prop-2-yn-1-ylamino)-1-(pyrazin-2-yl)quinazolin-2 (1H)-one]	< 0.05
C#CC1(Nc2nc(=O)n(-c3cccnc3C)c3cc(C(F)(F)F)ccc23)CC1 [Example 46, 4-((1-ethynylcyclopropyl)amino)-1-(2-methylpyridin-3-yl)-7-(trifluoromethyl)quinazolin-2 (1H)-one]	< 0.05
C#CCNc1nc(=O)n(-c2cccnc2C)c2cc(C(F)(F)F)cc(OC)c12 [Example 36, 5-methoxy-1-(2-methylpyridin-3-yl)-4-(prop-2-yn-1-ylamino)-7-(trifluoromethyl)quinazolin-2 (1H)-one]	< 0.05
C#CC1(Nc2nc(=O)n(-c3cnccn3)c3cc(C(F)(F)F)ccc23)CC1 [Example 69, 4-((1-ethynylcyclopropyl)amino)-1-(pyrazin-2-yl)-7-(trifluoromethyl)quinazolin-2 (1H)-one]	< 0.05
C#CCNc1nc(=O)n(-c2cccnc2C)c2cc(Br)cc(OC)c12 [Example 19, 7-bromo-5-methoxy-1-(2-methylpyridin-3-yl)-4-(prop-2-yn-1-ylamino)quinazolin-2 (1H)-one]	< 0.05
C=CC1(Nc2nc(=O)n(-c3cccnc3C)c3cc(Cl)cc(OC)c23)CC1 [Example 75, 7-chloro-5-methoxy-1-(2-methylpyridin-3-yl)-4-((1-vinylcyclopropyl)amino)quinazolin-2 (1H)-one]	< 0.05
C#CCNc1nc(=O)n(-c2cnccn2)c2cc(C(F)(F)F)cc(OC)c12 [Example 54, 5-methoxy-4-(prop-2-yn-1-ylamino)-1-(pyrazin-2-yl)-7-(trifluoromethyl)quinazolin-2 (1H)-one]	< 0.05
C#CCCCNc1nc(=O)n(-c2cccnc2)c2cc(Cl)ccc12 [Example 6, 7-chloro-4-(pent-4-yn-1-ylamino)-1-(pyridin-3-yl)quinazolin-2 (1H)-one]	< 0.05
C#CC1(Nc2nc(=O)n(-c3cccnc3C)c3cc(Cl)ccc23)CC1 [Example 16, 7-chloro-4-((1-ethynylcyclopropyl)amino)-1-(2-methylpyridin-3-yl)quinazolin-2 (1H)-one]	< 0.05
